Experimental data reported in the Kinase Knowledgebase extract (Sharma et al. 2016).

Key:
EGFR (human) [1] = molecular target: EGFR (human) (UniProt P00533); conditions: ccrf-cem
EGFR (human) [2] = molecular target: EGFR (human) (UniProt P00533); conditions: hct-116
EGFR (human) [3] = molecular target: EGFR (human) (UniProt P00533); conditions: sf-539
EGFR (human) [4] = molecular target: EGFR (human) (UniProt P00533); conditions: uacc-62
EGFR (human) [5] = molecular target: EGFR (human) (UniProt P00533); conditions: ovcar-3
EGFR (human) [6] = molecular target: EGFR (human) (UniProt P00533); conditions: sn12c
EGFR (human) [7] = molecular target: EGFR (human) (UniProt P00533); conditions: du-145
EGFR (human) [8] = molecular target: EGFR (human) (UniProt P00533); conditions: mda-mb-435
EGFR (human) [9] = molecular target: EGFR (human) (UniProt P00533); conditions: hop-62
EGFR (human) [10] = molecular target: EGFR (human) (UniProt P00533); conditions: mcf-7
EGFR (mouse) = EGFR (mouse) (UniProt P00533); conditions: baf3

Chain of EGFR (human) (P00533 whole entry, looked up): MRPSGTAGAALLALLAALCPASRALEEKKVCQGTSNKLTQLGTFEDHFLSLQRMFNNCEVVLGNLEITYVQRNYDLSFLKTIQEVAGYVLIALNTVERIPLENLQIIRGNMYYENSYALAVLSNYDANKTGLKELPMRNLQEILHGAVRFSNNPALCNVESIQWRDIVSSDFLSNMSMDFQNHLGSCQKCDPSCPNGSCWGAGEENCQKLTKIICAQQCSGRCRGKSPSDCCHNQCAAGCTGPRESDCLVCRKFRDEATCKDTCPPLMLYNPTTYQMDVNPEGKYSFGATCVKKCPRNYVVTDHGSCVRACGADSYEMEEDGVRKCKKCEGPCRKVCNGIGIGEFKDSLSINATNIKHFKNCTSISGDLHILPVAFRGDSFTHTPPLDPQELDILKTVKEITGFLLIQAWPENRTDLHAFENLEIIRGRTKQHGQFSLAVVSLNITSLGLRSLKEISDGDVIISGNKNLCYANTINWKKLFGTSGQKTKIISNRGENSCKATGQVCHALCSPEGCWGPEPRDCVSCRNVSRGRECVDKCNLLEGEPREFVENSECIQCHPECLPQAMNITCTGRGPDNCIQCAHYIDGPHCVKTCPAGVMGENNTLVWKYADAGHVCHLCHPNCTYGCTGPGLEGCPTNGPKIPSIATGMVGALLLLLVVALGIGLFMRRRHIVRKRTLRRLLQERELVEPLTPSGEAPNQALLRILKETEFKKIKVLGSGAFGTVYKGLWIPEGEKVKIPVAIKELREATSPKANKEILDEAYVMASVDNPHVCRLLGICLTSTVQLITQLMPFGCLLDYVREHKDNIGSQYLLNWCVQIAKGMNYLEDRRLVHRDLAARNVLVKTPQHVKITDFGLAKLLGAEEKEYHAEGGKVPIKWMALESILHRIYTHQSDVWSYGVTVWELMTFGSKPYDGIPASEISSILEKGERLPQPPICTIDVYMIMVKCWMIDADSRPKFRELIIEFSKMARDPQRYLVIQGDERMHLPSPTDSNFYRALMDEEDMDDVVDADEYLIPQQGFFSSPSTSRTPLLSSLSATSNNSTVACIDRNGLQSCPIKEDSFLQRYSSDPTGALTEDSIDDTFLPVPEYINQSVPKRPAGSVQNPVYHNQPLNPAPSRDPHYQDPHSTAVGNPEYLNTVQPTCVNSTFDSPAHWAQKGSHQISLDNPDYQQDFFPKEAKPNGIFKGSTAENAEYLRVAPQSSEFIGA

Compound | IC50 (EGFR (human) [1]) [µM] | IC50 (EGFR (human) [2]) [µM] | IC50 (EGFR (human) [3]) [µM] | IC50 (EGFR (human) [4]) [µM] | IC50 (EGFR (human) [5]) [µM] | IC50 (EGFR (human) [6]) [µM] | IC50 (EGFR (human) [7]) [µM] | IC50 (EGFR (human) [8]) [µM] | IC50 (EGFR (human) [9]) [µM] | IC50 (EGFR (human) [10]) [µM] | IC50 (EGFR (mouse)) [µM]
O=C(NCCc1ccc(F)cc1)c1cc(NCc2cc(O)ccc2O)ccc1O | 0.29 | 9.2 | 9.2 | 7.8 | 11 | 7.7 | 18 | 13 |  |  | 
O=C(NCCc1ccc(Cl)cc1)c1cc(NCc2cc(O)ccc2O)ccc1O | 1.6 | 15 | 8.4 |  | 5.9 | 9.8 | 16 | 20 | 17 |  | 
CC(C)CCCC(C)[C@H]1CCC2C3CCC4C[C@@H](NC(=O)c5cc(NCc6cc(O)ccc6O)ccc5O)CC[C@]4(C)C3CC[C@@]21C (stereo partly drawn) |  |  |  |  |  |  |  |  |  | > 50 | 
O=C(NCc1ccccc1)c1cc(NCc2cc(O)ccc2O)ccc1O |  |  | 21 | 15 | 21 | 12 | 16 | 30 | 23 |  | 
COc1ccc(CCNC(=O)c2cc(NCc3cc(O)ccc3O)ccc2O)cc1 | 3.2 | 23 | 16 |  | 5.5 | 72 | 21 | 16 | 12 |  | > 100
CCCCCCNC(=O)c1cc(NCc2cc(O)ccc2O)ccc1O | 0.56 | 17 | 2.3 | 12 | 4 | 6.1 | 15 | 15 | 19 |  | 
O=C(NCCN1CCOCC1)c1cc(NCc2cc(O)ccc2O)ccc1O | 1.8 | 20 | 19 | 17 | 87 | 22 | 17 | 13 |  |  | > 50
O=C(NCCCc1ccccc1)c1cc(NCc2cc(O)ccc2O)ccc1O | 2.4 | 24 | 16 | 14 | 6.5 | 15 | 8.4 | 18 | 22 |  | 
O=C(NCCc1ccccn1)c1cc(NCc2cc(O)ccc2O)ccc1O | 1 | 17 | 29 | 17 | 17 | 19 | 17 | 13 | 20 |  | 
O=C(NCCc1ccc(O)cc1)c1cc(NCc2cc(O)ccc2O)ccc1O |  |  | 2.5 | 18 | 62 | 19 | 17 | 23 | 2.5 |  | 
O=C(NC1CCc2ccccc2C1)c1cc(NCc2cc(O)ccc2O)ccc1O (stereo not drawn) | 1.4 | 16 | 2.7 | 14 |  | 18 | 17 | 9.2 | 17 |  | 
O=C(NCCCc1ccccc1)c1ccc(NCc2cc(O)ccc2O)cc1 | 0.83 | 6.4 | 3.4 | 7.9 |  | 3.2 | 13 |  | 16 |  | 
O=C(NCCc1ccccc1)c1ccc(NCc2cc(O)ccc2O)cc1 | 0.59 | 7.4 | 8.5 | 9.4 | 2.7 | 7.4 | 14 |  | 13 |  | > 200
O=C(NCCc1ccccc1)c1cc(NCc2cc(O)ccc2O)ccc1O | 2.7 | 18 | 17 | 14 | 7.7 | 18 | 16 | 19 | 20 |  | 
O=C(NCc1ccccc1)c1ccc(NCc2cc(O)ccc2O)cc1 | 2.7 | 10 | 9.7 | 12 | 6.8 | 9.7 | 15 | 12 | 20 |  | > 100
O=C(NCCc1ccc(Br)cc1)c1cc(NCc2cc(O)ccc2O)ccc1O |  | 7.6 | 15.8 | 8.6 |  |  | 16 | 10 | 18 |  | 
CCCCCCCCCCCCNC(=O)c1cc(NCc2cc(O)ccc2O)ccc1O | 0.34 | 2.1 | 20 | 3.2 | 1.9 | 2.6 | 11 | 3.2 | 3.8 |  | 
O=C(NCCc1ccccc1)c1cccc(NCc2cc(O)ccc2O)c1 | 4.4 | 16 | 15 | 13 | 2.8 | 13 | 17 | 15 | 3.8 |  | 
